Reference: paper PMC9780857 (International Journal of Molecular Sciences, 2022)
Read-outs that look alike come from different tables or passages of the source.

Legend:
[1] = biological target: T1, hOCT2 (Homo sapiens, UniProt O15244); assay: Inhibition of hOCT2-mediated 14C-metformin uptake in transfected HEK293 cells; type: cell-based; design: expressed in transfected cells; host or cells: HEK293 (stably transfected)
T1 sequence (O15244 1-555): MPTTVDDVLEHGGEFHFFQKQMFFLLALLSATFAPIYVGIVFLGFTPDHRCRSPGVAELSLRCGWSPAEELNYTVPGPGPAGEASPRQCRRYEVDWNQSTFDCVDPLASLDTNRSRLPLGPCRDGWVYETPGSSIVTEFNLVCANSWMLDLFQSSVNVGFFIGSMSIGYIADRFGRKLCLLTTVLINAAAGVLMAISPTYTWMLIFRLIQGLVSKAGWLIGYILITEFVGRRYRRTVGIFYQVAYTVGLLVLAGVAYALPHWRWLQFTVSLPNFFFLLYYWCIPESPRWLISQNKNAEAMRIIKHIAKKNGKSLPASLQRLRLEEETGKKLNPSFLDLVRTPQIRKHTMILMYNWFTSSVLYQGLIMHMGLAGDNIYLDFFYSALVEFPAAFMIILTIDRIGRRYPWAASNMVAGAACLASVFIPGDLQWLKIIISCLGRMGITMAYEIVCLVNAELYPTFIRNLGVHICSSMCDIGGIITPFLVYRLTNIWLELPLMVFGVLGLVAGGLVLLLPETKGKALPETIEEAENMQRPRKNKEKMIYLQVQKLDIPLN
Experimental: (§1) The uptake assays were performed as previously described in 24-well plates. […] After incubation, the uptake was stopped by aspirating the reaction mixture and washing the cells three times with 0.4 mL ice-cold PBS buffer. Cells were then solubilized with 0.6 mL of 1 N NaOH, overnight. The whole content of each well (0.6 mL) was transferred to a scintillation vial (Perkin Elmer). The radio-labelled amount was determined by liquid scintillation counting.
(§2) All inhibition experiments were conducted on at least two separate days in triplicate.
(§3) For screening experiments, cis-inhibition was carried out in duplicate by measuring the uptake of the labeled probe substrate in the absence and presence of 10 µM or 100 µM of the respective pesticide or drug. […] Inhibitory effects in percent were calculated from net-uptake. […]

[2] = biological target: T2, mOct2 (Mus musculus, UniProt O70577); assay: Inhibition of mOct2-mediated 14C-metformin uptake in transfected HEK293 cells; type: cell-based; design: expressed in transfected cells; host or cells: HEK293 (stably transfected)
T2 sequence (O70577 1-553): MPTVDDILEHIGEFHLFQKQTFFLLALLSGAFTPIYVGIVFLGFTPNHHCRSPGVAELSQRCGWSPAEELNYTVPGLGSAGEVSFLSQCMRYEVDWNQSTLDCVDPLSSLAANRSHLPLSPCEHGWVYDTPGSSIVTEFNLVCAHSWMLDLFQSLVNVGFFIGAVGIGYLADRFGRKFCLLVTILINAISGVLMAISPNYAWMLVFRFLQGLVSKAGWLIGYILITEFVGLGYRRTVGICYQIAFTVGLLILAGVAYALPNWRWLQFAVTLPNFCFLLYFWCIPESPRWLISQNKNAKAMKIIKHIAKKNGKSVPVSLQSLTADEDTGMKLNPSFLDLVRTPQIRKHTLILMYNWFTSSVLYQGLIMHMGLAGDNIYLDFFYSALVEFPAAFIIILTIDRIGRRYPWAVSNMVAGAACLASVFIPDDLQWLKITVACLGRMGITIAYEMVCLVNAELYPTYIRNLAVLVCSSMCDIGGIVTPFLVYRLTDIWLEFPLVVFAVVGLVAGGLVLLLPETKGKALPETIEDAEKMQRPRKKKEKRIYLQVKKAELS
Experimental: as §1, §2, §3

[3] = substrate: C[n+]1ccc(-c2ccccc2)cc1; assay: cells, lysate or membranes; conditions: other: substrate, metformin 2 min, MPP 1 min, 37 °C, pH 7.4
[4] = HEK293, 10 µM test compound; 1 µM [14C]metformin, 2 min, HEK293; negative = stimulation; read-out: Inhibitory Effects (%) hOCT2 10 µM Mean
[5] = HEK293, 100 µM test compound; 1 µM [14C]metformin, 2 min, HEK293; negative = stimulation; read-out: Inhibitory Effects (%) hOCT2 100 µM Mean
[6] = HEK293, 10 µM test compound; 1 µM [14C]metformin, 2 min, HEK293; negative = stimulation; read-out: Inhibitory Effects (%) mOct2 10 µM Mean
[7] = HEK293, 100 µM test compound; 1 µM [14C]metformin, 2 min, HEK293; negative = stimulation; read-out: Inhibitory Effects (%) mOct2 100 µM Mean
[8] = 10 µM test compound; 1 µM [14C]metformin, 2 min, HEK293; negative = stimulation
[9] = HEK293; read-out: Inhibitory Effects (%) mOct2 10 µM Mean
[10] = HEK293; read-out: Inhibitory Effects (%) mOct2 100 µM Mean
[11] = HEK293, read-out: Inhibitory Effects (%) hOCT2 10 µM Mean
[12] = HEK293, read-out: Inhibitory Effects (%) hOCT2 100 µM Mean
[13] = HEK293, read-out: Inhibitory Effects (%) mOct2 10 µM Mean
[14] = HEK293, read-out: Inhibitory Effects (%) mOct2 100 µM Mean

CCCCc1oc2ccccc2c1C(=O)c1cc(I)c(OCCN(CC)CC)c(I)c1 [Amiodarone]
inhibition at 10 µM [1, 4]: -10%
inhibition at 100 µM [1, 5]: -27%
inhibition at 10 µM [2, 6]: -7%
inhibition at 100 µM [2, 7]: 4%

O[C@@H](COc1cccc2ncccc12)CN1CCN([C@@H]2c3ccccc3[C@@H]3[C@H](c4ccccc42)C3(F)F)CC1 [Zosuquidar]
inhibition at 10 µM [1, 4]: -10%
inhibition at 100 µM [1, 5]: -47%
inhibition at 10 µM [2, 6]: -11%
inhibition at 100 µM [2, 7]: -30%

CCCOC(=O)NCCCN(C)C [Propamocarb]
Inhibitory Effects (%) hOCT2 10 µM Mean [1, 8]: negligible
inhibition at 10 µM ([1]; HEK293; read-out: Inhibitory Effects (%) hOCT2 10 µM Mean): 1%
inhibition at 100 µM ([1]; HEK293; read-out: Inhibitory Effects (%) hOCT2 100 µM Mean): 55%
Inhibitory Effects (%) mOct2 10 µM Mean [2, 8]: negligible
inhibition at 10 µM [2, 9]: -9%
inhibition at 100 µM [2, 10]: 48%

COc1ccc(CCN(C)CCCC(C#N)(c2ccc(OC)c(OC)c2)C(C)C)cc1OC (stereo not shown) [Verapamil]
inhibition at 10 µM [1, 11]: -8%
inhibition at 100 µM [1, 12]: 44%
inhibition at 10 µM [2, 13]: 23%
inhibition at 100 µM [2, 14]: 73%

COC(=O)[C@H]1[C@H]2C[C@@H]3c4[nH]c5cc(OC)ccc5c4CCN3C[C@H]2C[C@@H](OC(=O)c2cc(OC)c(OC)c(OC)c2)[C@@H]1OC [Reserpine]
inhibition at 10 µM [1, 4]: -13%
inhibition at 100 µM [1, 5]: -27%
inhibition at 10 µM [2, 9]: -27%
inhibition at 100 µM [2, 10]: -19%

CCNc1nc(Cl)nc(NC(C)C)n1 [Atrazin]
inhibition at 10 µM [1, 11]: -57%
inhibition at 100 µM [1, 12]: -53%
inhibition at 10 µM [2, 13]: -44%
inhibition at 100 µM [2, 14]: -27%

B1: hOCT2 (Homo sapiens) (protein)
chain: MPTTVDDVLEHGGEFHFFQKQMFFLLALLSATFAPIYVGIVFLGFTPDHRCRSPGVAELSLRCGWSPAEELNYTVPGPGPAGEASPRQCRRYEVDWNQSTFDCVDPLASLDTNRSRLPLGPCRDGWVYETPGSSIVTEFNLVCANSWMLDLFQSSVNVGFFIGSMSIGYIADRFGRKLCLLTTVLINAAAGVLMAISPTYTWMLIFRLIQGLVSKAGWLIGYILITEFVGRRYRRTVGIFYQVAYTVGLLVLAGVAYALPHWRWLQFTVSLPNFFFLLYYWCIPESPRWLISQNKNAEAMRIIKHIAKKNGKSLPASLQRLRLEEETGKKLNPSFLDLVRTPQIRKHTMILMYNWFTSSVLYQGLIMHMGLAGDNIYLDFFYSALVEFPAAFMIILTIDRIGRRYPWAASNMVAGAACLASVFIPGDLQWLKIIISCLGRMGITMAYEIVCLVNAELYPTFIRNLGVHICSSMCDIGGIITPFLVYRLTNIWLELPLMVFGVLGLVAGGLVLLLPETKGKALPETIEEAENMQRPRKNKEKMIYLQVQKLDIPLN
Km [3]: 62 µM

B2: mOct2 (Mus musculus) (protein)
chain: MPTVDDILEHIGEFHLFQKQTFFLLALLSGAFTPIYVGIVFLGFTPNHHCRSPGVAELSQRCGWSPAEELNYTVPGLGSAGEVSFLSQCMRYEVDWNQSTLDCVDPLSSLAANRSHLPLSPCEHGWVYDTPGSSIVTEFNLVCAHSWMLDLFQSLVNVGFFIGAVGIGYLADRFGRKFCLLVTILINAISGVLMAISPNYAWMLVFRFLQGLVSKAGWLIGYILITEFVGLGYRRTVGICYQIAFTVGLLILAGVAYALPNWRWLQFAVTLPNFCFLLYFWCIPESPRWLISQNKNAKAMKIIKHIAKKNGKSVPVSLQSLTADEDTGMKLNPSFLDLVRTPQIRKHTLILMYNWFTSSVLYQGLIMHMGLAGDNIYLDFFYSALVEFPAAFIIILTIDRIGRRYPWAVSNMVAGAACLASVFIPDDLQWLKITVACLGRMGITIAYEMVCLVNAELYPTYIRNLAVLVCSSMCDIGGIVTPFLVYRLTDIWLEFPLVVFAVVGLVAGGLVLLLPETKGKALPETIEDAEKMQRPRKKKEKRIYLQVKKAELS
Km [3]: 40 µM
